According to the supplement of paper PMC6045584:
± gives the standard deviation of the averaged measurements.

Tests used:
LAPATINIB = compound: CS(=O)(=O)CCNCc1ccc(-c2ccc3ncnc(Nc4ccc(OCc5cccc(F)c5)c(Cl)c4)c3c2)o1 [LAPATINIB]; test: surviving fraction relative to DMSO-only wells; higher = less growth inhibition; conditions: exposure time: 5 days
In short: (§1)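 After seeding at 250–500 cells per well in 384-well plates and a 24-hour wait, log-phase tumour cell lines were exposed without interruption for five days to inhibitors at 0.5, 1, 5, 10, 50, 100, 500 and 1000 nM. CellTiter-Glo luminescence was recorded after 10 minutes at room temperature. Viability is reported as surviving fraction, the luminescence normalised to the median of DMSO-only wells.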

DECITABINE = compound: Nc1ncn([C@H]2C[C@H](O)[C@@H](CO)O2)c(=O)n1 [DECITABINE]; test: as above; conditions: exposure time: 5 days
In short: as §1

Row | Test System | surviving fraction (LAPATINIB; 0.5 nM) | surviving fraction (LAPATINIB; 1 nM) | surviving fraction (LAPATINIB; 5 nM) | surviving fraction (LAPATINIB; 10 nM) | surviving fraction (LAPATINIB; 50 nM) | surviving fraction (LAPATINIB; 100 nM) | surviving fraction (LAPATINIB; 500 nM) | surviving fraction (LAPATINIB; 1000 nM) | surviving fraction (DECITABINE; 0.5 nM) | surviving fraction (DECITABINE; 1 nM) | surviving fraction (DECITABINE; 5 nM) | surviving fraction (DECITABINE; 10 nM) | surviving fraction (DECITABINE; 50 nM) | surviving fraction (DECITABINE; 100 nM) | surviving fraction (DECITABINE; 500 nM) | surviving fraction (DECITABINE; 1000 nM)
1 | CAL72 BONE | 1.13 ± 0.081 | 1.1 ± 0.061 | 1.16 ± 0.083 | 1.11 ± 0.055 | 1.11 ± 0.015 | 1.12 ± 0.096 | 1.02 ± 0.077 | 0.951 ± 0.17 | 1.04 ± 0.069 | 1.04 ± 0.03 | 1.03 ± 0.088 | 1.028 ± 0.01 | 1.06 ± 0.097 | 1.03 ± 0.14 | 0.958 ± 0.097 | 0.782 ± 0.2
2 | CAL120 BREAST | 1.02 ± 0.052 | 1.03 ± 0.044 | 1.02 ± 0.043 | 1 ± 0.039 | 1.04 ± 0.042 | 1.03 ± 0.075 | 0.998 ± 0.052 | 0.994 ± 0.045 | 0.952 ± 0.053 | 0.929 ± 0.059 | 0.948 ± 0.072 | 0.952 ± 0.044 | 0.995 ± 0.038 | 0.967 ± 0.018 | 0.806 ± 0.017 | 0.717 ± 0.037
3 | CASKI CERVIX | 0.884 ± 0.037 | 0.902 ± 0.013 | 0.952 ± 0.042 | 0.818 ± 0.042 | 0.775 ± 0.044 | 0.685 ± 0.021 | 0.426 ± 0.013 | 0.321 ± 0.013 | 0.891 ± 0.044 | 0.919 ± 0.096 | 0.858 ± 0.056 | 0.898 ± 0.095 | 0.484 ± 0.033 | 0.368 ± 0.042 | 0.214 ± 0.017 | 0.209 ± 0.022
4 | CHLA90 AUTONOMIC GANGLIA | 0.964 ± 0.031 | 0.99 ± 0.07 | 1.01 ± 0.052 | 0.947 ± 0.051 | 0.965 ± 0.06 | 0.981 ± 0.11 | 0.931 ± 0.073 | 0.875 ± 0.11 | 0.953 ± 0.073 | 0.934 ± 0.085 | 0.953 ± 0.06 | 0.902 ± 0.017 | 1.01 ± 0.12 | 0.994 ± 0.099 | 0.984 ± 0.079 | 1 ± 0.063
5 | CME SYNOVIAL | 1.13 ± 0.2 | 1.4 ± 0.13 | 1.43 ± 0.1 | 1.28 ± 0.12 | 1.26 ± 0.096 | 1.35 ± 0.19 | 1.2 ± 0.059 | 1.14 ± 0.16 | 1.27 ± 0.17 | 1.09 ± 0.072 | 1.19 ± 0.081 | 1.19 ± 0.089 | 0.987 ± 0.083 | 0.812 ± 0.063 | 0.484 ± 0.022 | 0.48 ± 0.042
6 | COLO320DM LARGE INTESTINE | 1.01 ± 0.08 | 1.09 ± 0.016 | 1.14 ± 0.026 | 1.2 ± 0.082 | 1.06 ± 0.015 | 1.15 ± 0.083 | 1.1 ± 0.05 | 1.12 ± 0.075 | 1.12 ± 0.044 | 1.12 ± 0.086 | 1.01 ± 0.076 | 1.03 ± 0.048 | 1.03 ± 0.071 | 0.928 ± 0.014 | 0.8568 ± 0.0037 | 0.792 ± 0.04
7 | DU4475 BREAST | 0.907 ± 0.062 | 1.1 ± 0.13 | 1.02 ± 0.079 | 0.944 ± 0.017 | 1.07 ± 0.12 | 0.957 ± 0.11 | 1.14 ± 0.11 | 0.932 ± 0.025 | 0.998 ± 0.059 | 0.872 ± 0.002 | 0.774 ± 0.11 | 0.782 ± 0.074 | 0.537 ± 0.066 | 0.415 ± 0.054 | 0.194 ± 0.015 | 0.167 ± 0.0061
8 | H23 LUNG | 1.02 ± 0.071 | 1.1 ± 0.075 | 0.9837 ± 0.0059 | 1.01 ± 0.019 | 0.861 ± 0.039 | 0.834 ± 0.031 | 0.4077 ± 0.0038 | 0.367 ± 0.023 | 0.987 ± 0.028 | 0.985 ± 0.034 | 0.984 ± 0.033 | 0.899 ± 0.028 | 0.803 ± 0.036 | 0.721 ± 0.057 | 0.614 ± 0.077 | 0.562 ± 0.048
9 | HCC78 LUNG | 0.98 ± 0.029 | 0.972 ± 0.093 | 1.01 ± 0.038 | 0.795 ± 0.26 | 0.82 ± 0.075 | 0.944 ± 0.1 | 0.857 ± 0.12 | 0.872 ± 0.12 | 0.979 ± 0.07 | 1.01 ± 0.11 | 0.899 ± 0.15 | 0.913 ± 0.12 | 0.777 ± 0.21 | 0.709 ± 0.025 | 0.213 ± 0.037 | 0.166 ± 0.036
10 | HCC202 BREAST | 1.3 ± 0.2 | 0.845 ± 0.19 | 1.17 ± 0.43 | 0.937 ± 0.17 | 0.905 ± 0.14 | 0.726 ± 0.31 | 0.383 | 0.221 ± 0.029 | 1 ± 0.21 | 1.25 ± 0.5 | 1.23 ± 0.27 | 1.06 ± 0.27 | 1.09 ± 0.26 | 1.09 ± 0.16 | 1.23 ± 0.18 | 1.009 ± 0.0014
